# Like-named read-outs stand apart in the source and are kept apart here.
# How the values were obtained:
# [1] = Acute toxicity, intravenous injection (LD50); assay type: in vivo; conditions: mouse, in vivo, ddy male mice, sodium salt, mortality over one week
# Experimental: Administration route: Intravenous injection
# Using ddy male mice (body weight: 25 - 30 g), each test group consisted of 5 mice. A test compound was dissolved in the form of a sodium salt in a physiological saline or in a 5% glucose aqueous solution, and intravenously injected in an amount of 0.1 ml/10 g body weight. After the injection, the mortality rate was obtained over one week, and the median lethal dose LD50 (mg/kg) was determined.
# [2] = test system: experimental acute pancreatitis model; test: Effects against acute pancreatitis (Test Example 8, closed duodenal loop method, lesion scores); assay type: in vivo, Crj-CD male rats; conditions: sodium salt, 6 hours after ventrotomy; for inhibition in vivo at 10 mg/kg: Rattus norvegicus, 10 mg/kg single intravenous injection
# Procedure, shortened: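 Closed duodenal loop pancreatitis in male Crj-CD rats (n=3) under halothane/nitrous oxide; sodium-salt compounds given i.v. into tail vein by continuous infusion or bolus, controls untreated. At 6 h, four pancreatic lesions scored 0-3; inhibition % of total and hemorrhagic scores calculated versus control.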
# [3] = target: T1, Porcine pancreatic phospholipase A2 (Sus scrofa, UniProt P00592); test: Phospholipase A2 inhibitory activity, method A (egg yolk lecithin substrate); assay type: biochemical; conditions: 1,000 ppm, 37°C for 30 minutes, read-out: % inhibition of PLA2 (1,000 ppm)
# T1 construct: purchased Boehringer Mannheim·Yamanouchi K.K. 161454·122416
# T1 sequence (P00592 23-146): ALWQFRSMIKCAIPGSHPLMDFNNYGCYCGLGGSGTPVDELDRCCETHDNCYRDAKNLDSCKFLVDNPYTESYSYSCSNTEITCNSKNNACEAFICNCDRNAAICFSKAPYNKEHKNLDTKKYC
# Experimental: To 10 mg of egg yolk lecithin (manufactured by Wako Pure Chemical Industries Ltd.), 1 ml of glycerine, 2 ml of a 50 mM Tris-HCl buffer solution (pH7.5) [Tris(hydroxymethyl)aminomethane (manufactured by Nacalai Tesque K.K.) was adjusted to pH7.5 with hydrochloric acid], 0.5 ml of a 150 mM calcium chloride solution (calcium chloride was dissolved in a 50 mM Tris-HCl buffer solution) and 0.5 ml of a 0.05% Triton-X100 (manufactured by Nacalai Tesque K.K.) solution (Triton-X100 was dissolved in a 50 mM Tris-HCl buffer solution), were added and dispersed by an agate mortar or dispersed by an ultrasonic processor (Model W-225, manufactured by Heat System-Ultrasonics, Inc.) for 5 minutes (30W) to obtain a substrate.
# Porcine pancreatic phospholipase A2 [(161454·122416) manufactured by Boehringer Mannheim·Yamanouchi K.K.] was used.
# To a 96 well microtitration plate (flat bottom, manufactured by Sumitomo Bakelite Medical Co., Ltd.), 40 µl of the substrate, 5 µl of a solution prepared by dissolving 10 mg of a test compound in 500 µl of dimethylsulfoxide, followed by an addition of 500 µl of a 50 mM Tris-HCl buffer solution, and 5 µl of an enzyme solution of 20 ng/ml (prepared by diluting the enzyme in a 50 mM Tris-HCl buffer solution), were added and reacted at 37°C for 30 minutes. After termination of the reaction, the released free fatty acid was quantitatively analyzed in accordance with the ACS-ACOD (acyl CoA synthetase-acyl CoA oxidase) method [a kit of NEFA C test wako (manufactured by Wako Pure Chemical Industries, Ltd.) was used]. The quantitative analysis was made by means of Microplate ELISA Reader (Model 2550EIA Reader, manufactured by Bio-Rad Laboratories) at a wavelength of 540 nm. Separately, such experiments as mentioned above, were carried out at various concentrations (2 µg/ml, 1 µg/ml and 0.5 µg/ml) of phospholipase A2 without a test compound. Then, the concentration of the free fatty acid versus the concentration of phospholipase A2 was plotted.
# From this standard curve, the apparent concentration of phospholipase A2 in the case with a test compound, was read. Then, the percent inhibition of the enzyme was calculated by the following formula. Percent inhibition (%) = (l -(A)/(B)) x 100 [formula] • A: Apparent enzyme concentration when a test compound is added. • B: True enzyme concentration when a test compound is added.
# [4] = test system: increased vascular permeability induced by acetic acid; test: Inhibitory activity on increased vascular permeability induced by acetic acid (Mouse Whittle method, method C); assay type: in vivo, ddy male mice; conditions: amount of leaked dye
# Experimental: Using ddy male mice, each test group consisted of 4 or 5 mice. A test compound was mixed with Tween 80 [polyoxyethylenesorbitan monooleate (manufactured by Nacalai Tesque K.K.)], and distilled water was added thereto to obtain a 2% Tween 80 suspension, or it was dissolved in the form of a salt in water to obtain an aqueous solution. A test compound was orally administered, and upon expiration of one hour from the administration, 0.7% acetic acid was intraperitonially injected to each mouse in an amount of 0.1 ml/10 g, and at the same time, 2% brilliant blue was intravenously injected into the tail vein in an amount of 0.1 ml/20 g. Thirty minutes after the injection of brilliant blue, the cervical vertebrae were dislocated under anesthesia by chloroform, and the abdorminal cavity was washed with 5 ml of a physiological saline. The washing solution was subjected to centrifugal separation at 3,000 rpm for 10 minutes, and the amount of the dye in the supernatant was measured at 600 nm absorbance by Microplate ELISA Reader (Model 2550EIA Reader, manufactured by Bio-Rad Laboratories). The inhibition rate of the amount of leaked dye in the group in which a test compound was administered relative to the control group was obtained by the following formula. Inhibition rate (%) = (l -(C)/(D)) x 100 [formula] • C: Amount of leaked dye in the group to which a test compound was administered. • D: Amount of leaked dye in the control group.
# carrageenin edema = test: Inhibitory activity on carrageenin edema; assay type: in vivo, Wistar male rats; conditions: po, 3 h; rat; dose 100 mg/kg orally; paw swelling volume three hours after carrageenin; read-out: Inhibition rate (%)
# Procedure, shortened: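 Male Wistar rats (about 100 g, 5 per group) dosed orally at 200, 100, 50 or 25 mg/kg as 2% Tween 80 suspension or aqueous salt solution, 1 h before subplantar injection of 0.1 ml 1% λ-carrageenin. Paw swelling measured at 3 h; % inhibition versus control group mean swelling.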
# [5] = target: T1, Porcine pancreatic phospholipase A2; test: Phospholipase A2 inhibitory activity, method B (L-α-dipalmitoylphosphatidylcholine substrate); assay type: biochemical; conditions: 1,000 ppm, 37°C for 30 minutes, read-out: % inhibition of PLA2 (1,000 ppm)
# Procedure, shortened: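 Substrate: L-α-dipalmitoylphosphatidylcholine/sodium cholate mixed micelles in 250 mM NaCl, 100 mM Tris-HCl pH 8.0. Enzyme (10 µg/ml stock) incubated with compound in buffer containing CaCl2 and BSA, 30 min at 37 °C. Released free fatty acid measured by ACS-ACOD at 540 nm; % inhibition derived from apparent enzyme concentration read off a standard curve.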
# [6] = 20 mg/kg continuous intravenous injection
# [7] = read-out: Inhibition rate of hemorrhagic lesions (%)
# [8] = read-out: Inhibition rate of pancreatitis lesions (%)
Structure (SMILES),LD50 at 168 h [1],inhibition at 1000 ppm [3],Inhibition rate (%) ([4]; dose 50 mg/kg orally),inhibition in vivo at 100 mg/kg (carrageenin edema),LD50 at 168 h ([1]; iv),"inhibition in vivo at 10 mg/kg [2, 7]","inhibition in vivo at 10 mg/kg [2, 8]",also measured
CCCCOC(=O)Nc1cc(C(F)(F)F)cnc1NS(C)(=O)=O [compound 17],50 to 100 mg/kg,46%,31%,–,–,–,–,"Inhibition rate of hemorrhagic lesions (%) [2, 6]: 73%"
CCCCCCCCCCCC(=O)Nc1cc(C(F)(F)F)cnc1NS(C)(=O)=O [compound 5],–,39%,53%,37%,–,–,–,–
CS(=O)(=O)Nc1ncc(C(F)(F)F)cc1NC(=O)C(F)(F)Cl [compound 11],–,52%,–,24%,> 150 mg/kg,–,–,Inhibition rate of hemorrhagic lesions (%) ([2]; 23 mg/kg continuous intravenous injection): 52%; Inhibition rate (%) ([4]; dose 100 mg/kg orally): 49%
CCCOC(=O)Nc1cc(C(F)(F)F)cnc1NS(C)(=O)=O [compound 16],> 100 mg/kg,43%,–,24%,–,–,–,"Inhibition rate of hemorrhagic lesions (%) [2, 6]: 52%; Inhibition rate (%) ([4]; dose 20 mg/kg orally): 55%"
CCOC(=O)Nc1cc(C(F)(F)F)cnc1NS(C)(=O)=O [compound 15],100 to 150 mg/kg,62%,41%,–,–,45%,61%,–
C=CC(=O)Nc1cc(C(F)(F)F)cnc1NS(C)(=O)=O [compound 9],–,71%,81%,–,> 150 mg/kg,36%,21%,–
CCOC(=O)NC(=S)Nc1cc(C(F)(F)F)cnc1NS(C)(=O)=O [compound 18],> 150 mg/kg,64%,–,–,–,–,–,inhibition at 1000 ppm [5]: 49%; Inhibition rate (%) ([4]; dose 25 mg/kg orally): 49%
"CC(=O)OCC(=O)Nc1cc(C(F)(F)F)cnc1NS(C)(=O)=O [compound 63, N-(2-methylsulfonylamino-5-trifluoromethyl-3-pyridyl)acetoxyacetamide]",–,–,–,–,> 130 mg/kg,83%,66%,inhibition at 1000 ppm [5]: 34%; Inhibition rate (%) ([4]; dose 10 mg/kg orally): 41%
CCCCC(=O)Nc1cc(C(F)(F)F)cnc1NS(C)(=O)=O [Compound No. 2],–,55%,–,17%,50 to 100 mg/kg,–,–,Inhibition rate of hemorrhagic lesions (%) ([2]; 26 mg/kg continuous intravenous injection): 46%; Inhibition rate (%) ([4]; dose 20 mg/kg orally): 51%
"C/C=C/C(=O)Nc1cc(C(F)(F)F)cnc1NS(C)(=O)=O [compound 55, N-(2-methylsulfonylamino-5-trifluoromethyl-3-pyridyl)crotonamide]",–,49%,–,–,237 mg/kg,–,–,Inhibition rate of hemorrhagic lesions (%) ([2]; 40 mg/kg continuous intravenous injection): 65%; Inhibition rate (%) ([4]; dose 25 mg/kg orally): 59%

# From patent EP0465913B1, “Diaminotrifluoromethylpyrimidine derivatives, process for their production and phospholipase A2 inhibitor containing them” (ISHIHARA SANGYO KAISHA, LTD., priority 1990, dated 1992)
